What was measured:
[1] = system: CA1 hippocampal region; assay: LTP of fEPSPs in CA1 of acute hippocampal slices exposed to protofibrillar Aβ42; type: cell-based, mice; details: 50 nM VO-OHpic 1 hour before addition of 1 μM Aβ42
Experimental: Mice were anesthetized with sodium pentothal (20 mg/kg ip) and decapitated. The brain was rapidly removed to ice-cold, oxygenated, dissection solution. Coronal slices (300 μm) were made with a vibratome (LEICA VT1200S) and slices were moved to a recovery chamber containing aCSF at room temperature for at least 1.5 hour before recording.
A concentric bipolar platinum-iridium stimulation electrode and a low-resistance glass recording microelectrode filled with aCSF (3-4 MΩ resistance) were placed in CA1 stratum radiatum to record the extracellular field excitatory postsynaptic potentials (fEPSPs). For each slice, an input-output curve was recorded to compare basal synaptic transmission at different conditions. This curve was also used to set the baseline fEPSP at ≈30% (for LTP experiments) or ≈50% (for LTD experiments) of maximal slope. Baseline stimulation was delivered every 15 seconds (0.01 ms duration pulses) for at least 20 minutes before beginning the experiment to ensure stability of the response. LTP was induced by using θ-burst stimulation (4 pulses at 100 Hz, with the bursts repeated at 5 Hz and each tetanus including three 10-burst trains separated by 15 seconds). LTD was induced using 900 pulses at 1 Hz. Responses were recorded for 1 hour after induction of LTP or LTD. […]

[2] = system: CA1 individual neurons; assay: Whole-cell LTP (pairing protocol) in CA1 neurons of organotypic slices with APPswe/lnd-EGFP expression; type: cell-based, rat; details: VO-OHpic 26-48 hours
Experimental: The different versions of APP (APPwt, APPswe/lnd APPMV) and EGFP were co-expressed using an internal ribosomal entry site (IRES) construct. The EGFP-tagged versions of PTEN have been described (Jurado, et al. (2010) EMBO J. 29:2827-2840). All constructs were prepared in pSinRep5 for expression using Sindbis virus. Recombinant proteins were expressed in hippocampal CA1 pyramidal neurons from organotypic slice cultures. Organotypic hippocampal slices were prepared from postnatal day 5-7 rats and cultured during 6-8 days.
The external solution (aCSF) contained 119 mM NaCl, 2.5 mM KCl, 1 mM NaH2PO4, 11 mM glucose, 26 mM NaHCO3, 4 mM MgCl2, 4 mM CaCl2, 100 μM picrotoxin and 2 μM 2-chloroadenosine, pH 7.4, and was gassed with 95% O2 and 5% CO2. Patch recording pipettes (4-7 MO) were filled with internal solution containing 115 mM CsMeSO3, 20 mM CsCl, 10 mM HEPES, 2.5 mM MgCl2, 4 mM Na2-ATP, 0.4 mM Na-GTP, 10 mM sodium phosphocreatine and 0.6 mM EGTA, pH 7.25. Bipolar stimulating electrodes were placed over Schaffer collateral fibers between 250 and 300 μm from the CA1 recorded cells, and synaptic responses were evoked with single voltage pulses (200 μs, up to 30 V). Responses were collected at −60 mV and +40 mV and averaged over 50-100 trials. LTP was induced using a pairing protocol by stimulating Schaffer collateral fibers at 3 Hz for 1.5 minutes while depolarizing the postsynaptic cell at 0 mV. All electrophysiological data were collected with pCLAMP software (Molecular Devices). Immunohistochemistry For the immunostaining protocol, hippocampal slice cultures were fixed with 4% paraformaldehyde for 24 hours washed in PBS and blocked with 5% horse serum for 2 hours. Sections were then incubated for 48 hours at 4° C. with primary antibody. […]
(§1) However, this form of depression may in principle be due to Aβ exposure, to intracellular fragments derived from APP processing, or a combination thereof. To test the role of PTEN specifically in the effects of neuron-secreted Aβ, synaptic dysfunctions were monitored in untransfected cells neighboring APPswe/lnd-expressing neurons. […]

[3] = system: PTEN; assay: phospho-Akt and phospho-Tyr levels in acute hippocampal slices; type: cell-based, mice
[4] = system: APPswe/lnd-EGFP infected neurons; assay: APP expression, APP fragments and Aβ production/secretion in APPswe/lnd-infected slice cultures (ELISA, western blot); type: cell-based, rat; details: slice cultures with or without PTEN inhibitor
Experimental: Hippocampal slices overexpressing Aβ were maintained for 3 days after virus injection with or without the PTEN inhibitor VO-OHpic, before culture medium was collected for measurements. Aβ40 and Aβ42 level were determined in solubilized hippocampal fractions, cultured hippocampal slices or conditioned media by ELISA according to the manufacturer's instructions (WAKO/Invitrogen) that specifically detect the C-terminus of Aβ40 and Aβ42, respectively.
Hippocampi from APP/PS1 mice or their wild-type littermates and organotypic hippocampal slices infected with APPswe/lnd-EGFP/APPwt-EGFP/APPMV-EGFP were solubilized, and extracts were prepared for western blot analysis. […] APPsα was detected in conditioned media of the respective slices using antibody 6E10 that selectively detects human APPsα. Levels of APP, CTFα and CTFβ were detected in lysates of the infected slices using APPCt antibody. […]
as §1

Structure (SMILES): O=C(O)c1ncccc1O.O=C(O)c1ncccc1O.[O]=[V][O-] [VO-OHpic]
- LTP expression in presence of Aβ42 [1]: rescued the expression of LTP
- LTP potentiation, APPswe/lnd-EGFP infected cells ([2]; P=0.01): 220%
- LTP potentiation, uninfected cells exposed to Aβ ([2]; uninfected neurons adjacent to infected cells, P=0.0006): 339%
- magnitude of LTP in control slices ([2]; slices not exposed to APPswe/lnd-EGFP virus): did not affect the magnitude of LTP
- phospho-Akt (PIP3 downstream effector) [3]: upregulation
- phospho-Tyr levels (specificity versus Tyr phosphatases) [3]: lack of effect
- recombinant APP expression, formation of C-terminal APP fragments, Aβ production/secretion [4]: independent of VO-OHpic treatment

— patent US20170165317A1, “METHOD FOR MITIGATING OR ALLEVIATING SYNAPTIC AND COGNITIVE DEFICITS” (Trustees of Dartmouth College, priority 2013, published 2017)
